Where two headings read alike, the source gives them in different places. Positions of bridges follow the written chain, without caps; N, C: chain ends. Non-standard residues stand in square brackets, D forms with d. Residues, ends and D or L forms follow the SMILES beside them. Cit = NC(=O)NCCC[C@H](N)C(=O)O; Nva = CCC[C@H](N)C(=O)O
Experiments:
Experiment in all cases: cell-based
hNav1.7 = hNav1.7 (Homo sapiens, UniProt Q15858); format: cell-based; settings: IonWorks Quattro, hNav1.7, read-out: IWQ Use Nav1.7
hNav1.5 = hNav1.5 (Homo sapiens, UniProt Q14524); settings: IonWorks Quattro, hNav1.5, read-out: IWQ Use Nav1.5
hNav1.3 = hNav1.3 (Homo sapiens, UniProt Q9NY46); settings: IonWorks Quattro, hNav1.3, read-out: IWQ Use Nav1.3

hNav1.7, sequence (Q15858 whole entry, looked up): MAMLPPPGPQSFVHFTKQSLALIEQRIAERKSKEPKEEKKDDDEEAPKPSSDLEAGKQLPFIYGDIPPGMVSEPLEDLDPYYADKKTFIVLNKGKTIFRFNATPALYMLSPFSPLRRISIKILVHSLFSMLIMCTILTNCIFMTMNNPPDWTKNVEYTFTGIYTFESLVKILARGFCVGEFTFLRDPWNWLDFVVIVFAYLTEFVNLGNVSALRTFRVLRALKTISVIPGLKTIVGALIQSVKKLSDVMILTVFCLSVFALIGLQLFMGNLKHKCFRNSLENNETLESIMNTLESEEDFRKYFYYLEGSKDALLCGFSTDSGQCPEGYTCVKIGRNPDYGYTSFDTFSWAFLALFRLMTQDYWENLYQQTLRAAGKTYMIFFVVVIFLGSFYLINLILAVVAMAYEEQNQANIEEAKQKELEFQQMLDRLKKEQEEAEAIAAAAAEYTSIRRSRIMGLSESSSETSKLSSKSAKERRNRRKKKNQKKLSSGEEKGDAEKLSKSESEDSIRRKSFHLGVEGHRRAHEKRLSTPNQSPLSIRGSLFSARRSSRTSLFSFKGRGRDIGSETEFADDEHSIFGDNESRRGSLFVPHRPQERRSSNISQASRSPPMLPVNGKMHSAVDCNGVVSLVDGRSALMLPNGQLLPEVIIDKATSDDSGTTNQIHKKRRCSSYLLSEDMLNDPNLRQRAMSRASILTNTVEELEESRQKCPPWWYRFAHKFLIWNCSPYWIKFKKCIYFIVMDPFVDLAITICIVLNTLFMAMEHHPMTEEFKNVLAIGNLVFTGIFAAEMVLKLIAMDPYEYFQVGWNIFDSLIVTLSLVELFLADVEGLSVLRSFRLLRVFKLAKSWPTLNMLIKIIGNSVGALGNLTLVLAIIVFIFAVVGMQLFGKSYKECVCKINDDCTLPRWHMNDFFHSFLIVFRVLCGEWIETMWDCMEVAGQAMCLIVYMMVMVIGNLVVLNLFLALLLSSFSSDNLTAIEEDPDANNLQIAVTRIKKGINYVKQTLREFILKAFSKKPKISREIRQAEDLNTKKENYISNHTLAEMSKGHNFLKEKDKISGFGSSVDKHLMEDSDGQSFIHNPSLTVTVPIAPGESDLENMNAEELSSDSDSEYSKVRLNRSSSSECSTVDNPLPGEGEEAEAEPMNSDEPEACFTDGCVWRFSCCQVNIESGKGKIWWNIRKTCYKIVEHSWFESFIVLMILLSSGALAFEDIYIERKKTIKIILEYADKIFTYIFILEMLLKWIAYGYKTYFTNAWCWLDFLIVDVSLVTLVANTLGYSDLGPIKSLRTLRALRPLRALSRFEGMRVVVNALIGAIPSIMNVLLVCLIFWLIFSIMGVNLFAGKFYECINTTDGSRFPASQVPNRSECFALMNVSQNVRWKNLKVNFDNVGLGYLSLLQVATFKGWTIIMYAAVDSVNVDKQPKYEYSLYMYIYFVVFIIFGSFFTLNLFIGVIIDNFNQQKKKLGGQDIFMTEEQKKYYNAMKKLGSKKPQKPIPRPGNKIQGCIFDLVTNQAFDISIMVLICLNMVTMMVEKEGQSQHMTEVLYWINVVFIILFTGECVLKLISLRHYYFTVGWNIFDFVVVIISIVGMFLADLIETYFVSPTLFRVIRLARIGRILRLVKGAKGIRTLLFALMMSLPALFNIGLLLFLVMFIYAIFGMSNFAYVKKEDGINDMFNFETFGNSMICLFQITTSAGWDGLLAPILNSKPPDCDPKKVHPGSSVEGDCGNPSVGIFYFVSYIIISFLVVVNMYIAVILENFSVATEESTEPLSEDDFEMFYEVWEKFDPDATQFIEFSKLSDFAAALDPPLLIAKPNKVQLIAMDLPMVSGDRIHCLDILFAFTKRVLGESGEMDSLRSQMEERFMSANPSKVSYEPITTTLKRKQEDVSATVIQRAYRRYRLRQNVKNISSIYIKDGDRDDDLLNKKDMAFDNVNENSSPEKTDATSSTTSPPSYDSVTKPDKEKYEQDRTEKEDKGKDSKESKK
hNav1.5, sequence (Q14524 whole entry, looked up): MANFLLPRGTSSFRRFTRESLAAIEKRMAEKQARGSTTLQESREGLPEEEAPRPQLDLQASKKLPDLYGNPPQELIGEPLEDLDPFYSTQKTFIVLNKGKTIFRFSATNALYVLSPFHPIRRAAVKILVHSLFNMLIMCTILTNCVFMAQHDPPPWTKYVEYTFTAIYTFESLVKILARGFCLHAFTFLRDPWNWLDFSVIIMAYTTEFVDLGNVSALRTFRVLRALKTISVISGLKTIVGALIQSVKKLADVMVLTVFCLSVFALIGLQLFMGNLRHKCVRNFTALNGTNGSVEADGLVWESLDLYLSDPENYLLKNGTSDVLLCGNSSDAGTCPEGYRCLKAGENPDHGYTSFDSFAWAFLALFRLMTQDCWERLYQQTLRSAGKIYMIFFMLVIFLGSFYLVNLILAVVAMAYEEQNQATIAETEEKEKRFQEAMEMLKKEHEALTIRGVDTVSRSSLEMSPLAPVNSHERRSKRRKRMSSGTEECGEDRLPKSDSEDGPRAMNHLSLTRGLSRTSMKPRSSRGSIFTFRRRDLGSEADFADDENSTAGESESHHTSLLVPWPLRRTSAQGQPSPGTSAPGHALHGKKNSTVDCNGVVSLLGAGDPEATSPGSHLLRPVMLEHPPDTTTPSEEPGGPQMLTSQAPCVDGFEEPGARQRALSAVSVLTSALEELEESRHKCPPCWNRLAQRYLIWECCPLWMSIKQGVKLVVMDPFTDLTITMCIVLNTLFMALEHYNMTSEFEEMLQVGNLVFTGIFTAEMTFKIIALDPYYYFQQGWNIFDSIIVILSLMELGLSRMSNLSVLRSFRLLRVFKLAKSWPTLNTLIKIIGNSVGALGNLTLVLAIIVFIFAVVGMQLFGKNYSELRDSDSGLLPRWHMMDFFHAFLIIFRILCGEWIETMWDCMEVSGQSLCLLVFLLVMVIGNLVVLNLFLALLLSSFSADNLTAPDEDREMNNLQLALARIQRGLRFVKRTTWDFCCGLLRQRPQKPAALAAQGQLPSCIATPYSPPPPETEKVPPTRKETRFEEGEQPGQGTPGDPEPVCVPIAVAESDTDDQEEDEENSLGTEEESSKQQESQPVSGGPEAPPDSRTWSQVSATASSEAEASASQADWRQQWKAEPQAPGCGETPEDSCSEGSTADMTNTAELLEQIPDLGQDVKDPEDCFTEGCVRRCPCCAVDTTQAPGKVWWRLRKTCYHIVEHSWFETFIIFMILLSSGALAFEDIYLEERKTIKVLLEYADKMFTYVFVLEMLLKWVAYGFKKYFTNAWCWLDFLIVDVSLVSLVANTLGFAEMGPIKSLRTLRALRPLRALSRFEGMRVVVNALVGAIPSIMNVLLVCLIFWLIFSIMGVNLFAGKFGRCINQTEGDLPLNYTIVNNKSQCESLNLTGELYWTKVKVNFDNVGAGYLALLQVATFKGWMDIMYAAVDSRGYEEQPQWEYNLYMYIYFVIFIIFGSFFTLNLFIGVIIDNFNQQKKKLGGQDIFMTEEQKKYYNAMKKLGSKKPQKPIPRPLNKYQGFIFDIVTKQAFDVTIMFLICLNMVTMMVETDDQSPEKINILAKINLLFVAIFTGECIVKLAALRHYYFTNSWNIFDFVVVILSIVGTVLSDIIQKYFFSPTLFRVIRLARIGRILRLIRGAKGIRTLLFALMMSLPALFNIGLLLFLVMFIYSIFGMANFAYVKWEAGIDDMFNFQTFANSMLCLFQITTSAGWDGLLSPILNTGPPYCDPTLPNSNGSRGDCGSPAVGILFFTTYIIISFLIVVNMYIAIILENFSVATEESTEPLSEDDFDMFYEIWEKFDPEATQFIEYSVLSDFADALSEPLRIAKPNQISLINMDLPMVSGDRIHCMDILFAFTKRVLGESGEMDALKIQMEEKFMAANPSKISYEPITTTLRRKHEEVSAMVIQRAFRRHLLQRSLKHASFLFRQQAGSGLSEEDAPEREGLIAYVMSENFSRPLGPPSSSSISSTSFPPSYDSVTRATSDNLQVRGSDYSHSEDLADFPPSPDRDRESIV

Row | Structure (SMILES) | IC50 (hNav1.7; use-dependent protocol) [µM] | IC50 (hNav1.5; use-dependent protocol) [µM] | IC50 (hNav1.3; use-dependent protocol) [µM] | IC50 (hNav1.7; use-dependent block) [µM] | IC50 (hNav1.5; use-dependent block) [µM] | IC50 (hNav1.3; use-dependent block) [µM]
1 | CCC[C@@H]1NC(=O)CNC(=O)[C@H](CC(C)C)NC(=O)[C@@H](NC(=O)[C@@H](N)CC(=O)O)CSSC[C@@H]2NC(=O)[C@@H]3CSSC[C@@H](C(=O)N[C@@H](CCCCN)C(=O)N[C@@H](Cc4ccc(O)cc4)C(=O)N[C@H](C(=O)N[C@@H](Cc4ccccc4)C(N)=O)C(C)C)NC(=O)[C@H](Cc4c[nH]c5ccccc45)NC(=O)[C@H](CCC(=O)O)NC(=O)[C@H](Cc4c[nH]cn4)NC(=O)[C@H]([C@@H](C)O)NC(=O)[C@H](CCCNC(=N)N)NC(=O)[C@H](CO)NC(=O)[C@H](CSSC[C@H](NC(=O)[C@H](CCCCN)NC(=O)[C@H](CCCNC(=N)N)NC(=O)[C@H](CC(C)C)NC1=O)C(=O)N[C@@H]([C@@H](C)CC)C(=O)N1CCC[C@H]1C(=O)N[C@@H](CC(=O)O)C(=O)N[C@@H](CC(N)=O)C(=O)N[C@@H](CC(=O)O)C(=O)N[C@@H](CCCCN)C(=O)N3)NC(=O)[C@H](C(C)C)NC(=O)[C@H](CC(C)C)NC(=O)[C@H](CC(N)=O)NC(=O)[C@@H]1CCCN1C(=O)[C@H](CCCNC(=N)N)NC2=O [compound 708] (H-DCLG[Nva]LRKCIPDNDKCCRPNLVCSRTHEWCKYVF-NH2; disulfide 2-17, 9-23, 16-30) | 0.37 | 31 | 2.8 | – | – | –
2 | CC[C@H](C)[C@@H]1NC(=O)[C@@H]2CSSC[C@@H]3NC(=O)[C@H](C(C)C)NC(=O)[C@H](CC(C)C)NC(=O)[C@H](CC(N)=O)NC(=O)[C@@H]4CCCN4C(=O)[C@H](CCCNC(=N)N)NC(=O)[C@H](CSSC[C@H](NC(=O)[C@@H](N)CC(=O)O)C(=O)N[C@@H](CC(C)C)C(=O)NCC(=O)N[C@@H](C(C)C)C(=O)N[C@@H](CC(C)C)C(=O)N[C@@H](CCCNC(=N)N)C(=O)N[C@@H](CCCCN)C(=O)N2)NC(=O)[C@H](CSSC[C@@H](C(=O)N[C@@H](CCCCN)C(=O)N[C@@H](Cc2ccc(O)cc2)C(=O)N[C@H](C(=O)N[C@@H](Cc2ccccc2)C(N)=O)C(C)C)NC(=O)[C@H](Cc2c[nH]c4ccccc24)NC(=O)[C@H](CCC(=O)O)NC(=O)[C@H](Cc2c[nH]cn2)NC(=O)[C@H]([C@@H](C)O)NC(=O)[C@H](CCCNC(=N)N)NC(=O)[C@H](CO)NC3=O)NC(=O)[C@H](CCCCN)NC(=O)[C@H](CC(=O)O)NC(=O)[C@H](CC(N)=O)NC(=O)[C@H](CC(=O)O)NC(=O)[C@@H]2CCCN2C1=O [compound 709] (H-DCLGVLRKCIPDNDKCCRPNLVCSRTHEWCKYVF-NH2; disulfide 2-17, 9-23, 16-30) | 0.74 | 43 | 4.8 | – | – | –
3 | CSCC[C@@H]1NC(=O)[C@H](C(C)C)NC(=O)CNC(=O)[C@H](CC(C)C)NC(=O)[C@@H](NC(=O)[C@@H](N)CC(=O)O)CSSC[C@@H]2NC(=O)[C@@H]3CSSC[C@@H](C(=O)N[C@@H](CCCCN)C(=O)N[C@@H](Cc4ccc(O)cc4)C(=O)N[C@H](C(=O)N[C@@H](Cc4ccccc4)C(N)=O)C(C)C)NC(=O)[C@H](Cc4c[nH]c5ccccc45)NC(=O)[C@H](CCCCN)NC(=O)[C@H](Cc4c[nH]cn4)NC(=O)[C@H]([C@@H](C)O)NC(=O)[C@H](CCCNC(=N)N)NC(=O)[C@H](CO)NC(=O)[C@H](CSSC[C@H](NC(=O)[C@H](CCCCN)NC(=O)[C@H](CCCNC(=N)N)NC1=O)C(=O)N[C@@H](CC(=O)O)C(=O)N1CCC[C@H]1C(=O)N[C@@H](CC(=O)O)C(=O)N[C@@H](CC(N)=O)C(=O)N[C@@H](CC(=O)O)C(=O)N[C@@H](CCCCN)C(=O)N3)NC(=O)[C@H](C(C)C)NC(=O)[C@H](CC(C)C)NC(=O)[C@H](CC(N)=O)NC(=O)[C@@H]1CCCN1C(=O)[C@H](CCCNC(=N)N)NC2=O [compound 710] (H-DCLGVMRKCDPDNDKCCRPNLVCSRTHKWCKYVF-NH2; disulfide 2-17, 9-23, 16-30) | 0.69 | 35 | 1.3 | – | – | –
4 | CC[C@H](C)[C@@H]1NC(=O)[C@@H]2CSSC[C@@H]3NC(=O)[C@H](C(C)C)NC(=O)[C@H](CC(C)C)NC(=O)[C@H](CC(N)=O)NC(=O)[C@@H]4CCCN4C(=O)[C@H](CCCNC(=N)N)NC(=O)[C@H](CSSC[C@H](NC(=O)[C@@H](N)CC(=O)O)C(=O)N[C@@H](CC(C)C)C(=O)NCC(=O)N[C@@H](C(C)C)C(=O)N[C@@H](CCSC)C(=O)N[C@@H](CCCNC(=N)N)C(=O)N[C@@H](CCCCN)C(=O)N2)NC(=O)[C@H](CSSC[C@@H](C(=O)N[C@@H](CCCCN)C(=O)N[C@@H](Cc2ccc(O)cc2)C(=O)N[C@H](C(=O)N[C@@H](Cc2ccccc2)C(N)=O)C(C)C)NC(=O)[C@H](Cc2c[nH]c4ccccc24)NC(=O)[C@H](CCCCN)NC(=O)[C@H](Cc2c[nH]cn2)NC(=O)[C@H]([C@@H](C)O)NC(=O)[C@H](CCCNC(=N)N)NC(=O)[C@H](CO)NC3=O)NC(=O)[C@H](CCCCN)NC(=O)[C@H](CC(=O)O)NC(=O)[C@H](CC(N)=O)NC(=O)[C@H](CCC(=O)O)NC(=O)[C@@H]2CCCN2C1=O [compound 711] (H-DCLGVMRKCIPENDKCCRPNLVCSRTHKWCKYVF-NH2; disulfide 2-17, 9-23, 16-30) | 0.48 | 26 | 0.75 | – | – | –
5 | CSCC[C@@H]1NC(=O)[C@H](C(C)C)NC(=O)CNC(=O)[C@H](CC(C)C)NC(=O)[C@@H](NC(=O)[C@@H](N)CC(=O)O)CSSC[C@@H]2NC(=O)[C@@H]3CSSC[C@@H](C(=O)N[C@@H](CCCCN)C(=O)N[C@@H](Cc4ccc(O)cc4)C(=O)N[C@H](C(=O)N[C@@H](Cc4ccccc4)C(N)=O)C(C)C)NC(=O)[C@H](Cc4c[nH]c5ccccc45)NC(=O)[C@H](CCCCN)NC(=O)[C@H](Cc4c[nH]cn4)NC(=O)[C@H]([C@@H](C)O)NC(=O)[C@H](CCCNC(=N)N)NC(=O)[C@H](CO)NC(=O)[C@H](CSSC[C@H](NC(=O)[C@H](CCCCN)NC(=O)[C@H](CCCNC(=N)N)NC1=O)C(=O)N[C@@H](CC(=O)O)C(=O)N1CCC[C@H]1C(=O)N[C@@H](CCC(=O)O)C(=O)N[C@@H](CC(N)=O)C(=O)N[C@@H](CC(=O)O)C(=O)N[C@@H](CCCCN)C(=O)N3)NC(=O)[C@H](C(C)C)NC(=O)[C@H](CC(C)C)NC(=O)[C@H](CC(N)=O)NC(=O)[C@@H]1CCCN1C(=O)[C@H](CCCNC(=N)N)NC2=O [compound 712] (H-DCLGVMRKCDPENDKCCRPNLVCSRTHKWCKYVF-NH2; disulfide 2-17, 9-23, 16-30) | 0.46 | 34 | 1.7 | – | – | –
6 | CC[C@H](C)[C@@H]1NC(=O)[C@@H]2CSSC[C@@H]3NC(=O)[C@H](C(C)C)NC(=O)[C@H](CC(C)C)NC(=O)[C@H](CC(N)=O)NC(=O)[C@@H]4CCCN4C(=O)[C@H](CCCNC(=N)N)NC(=O)[C@H](CSSC[C@H](NC(=O)[C@@H](N)CC(=O)O)C(=O)N[C@@H](CC(C)C)C(=O)NCC(=O)N[C@@H](C(C)C)C(=O)N[C@@H](CCSC)C(=O)N[C@@H](CCCNC(=N)N)C(=O)N[C@@H](CCCCN)C(=O)N2)NC(=O)[C@H](CSSC[C@@H](C(=O)N[C@@H](CCCCN)C(=O)N[C@@H](Cc2ccc(O)cc2)C(=O)N[C@H](C(=O)N[C@@H](Cc2ccccc2)C(N)=O)C(C)C)NC(=O)[C@H](Cc2c[nH]c4ccccc24)NC(=O)[C@H](CCCCN)NC(=O)[C@H](Cc2c[nH]cn2)NC(=O)[C@H]([C@@H](C)O)NC(=O)[C@H](CCCNC(N)=O)NC(=O)[C@H](CO)NC3=O)NC(=O)[C@H](CCCCN)NC(=O)[C@H](CC(=O)O)NC(=O)[C@H](CC(N)=O)NC(=O)[C@H](CC(=O)O)NC(=O)[C@@H]2CCCN2C1=O [compound 713] (H-DCLGVMRKCIPDNDKCCRPNLVCS[Cit]THKWCKYVF-NH2; disulfide 2-17, 9-23, 16-30) | 0.83 | 36 | 4.2 | – | – | –
7 | CSCC[C@@H]1NC(=O)[C@H]([C@@H](C)O)NC(=O)CNC(=O)[C@H](CC(C)C)NC(=O)[C@@H](NC(=O)[C@@H](N)CC(=O)O)CSSC[C@@H]2NC(=O)[C@@H]3CSSC[C@@H](C(=O)N[C@@H](CCCCN)C(=O)N[C@@H](Cc4ccc(O)cc4)C(=O)N[C@H](C(=O)N[C@@H](Cc4ccccc4)C(N)=O)C(C)C)NC(=O)[C@H](Cc4c[nH]c5ccccc45)NC(=O)[C@H](CCCCN)NC(=O)[C@H](Cc4c[nH]cn4)NC(=O)[C@H]([C@@H](C)O)NC(=O)[C@H](CCCNC(=N)N)NC(=O)[C@H](CO)NC(=O)[C@H](CSSC[C@H](NC(=O)[C@H](CCCCN)NC(=O)[C@H](CCCNC(=N)N)NC1=O)C(=O)N[C@@H](CC(=O)O)C(=O)N1CCC[C@H]1C(=O)N[C@@H](CC(=O)O)C(=O)N[C@@H](CC(N)=O)C(=O)N[C@@H](CC(=O)O)C(=O)N[C@@H](CCCCN)C(=O)N3)NC(=O)[C@H](C(C)C)NC(=O)[C@H](CC(C)C)NC(=O)[C@H](CC(N)=O)NC(=O)[C@@H]1CCCN1C(=O)[C@H](CCCNC(=N)N)NC2=O [compound 714] (H-DCLGTMRKCDPDNDKCCRPNLVCSRTHKWCKYVF-NH2; disulfide 2-17, 9-23, 16-30) | 1.6 | 48 | > 5 | – | – | –
8 | CC[C@H](C)[C@@H]1NC(=O)[C@@H]2CSSC[C@@H]3NC(=O)[C@H](C(C)C)NC(=O)[C@H](CC(C)C)NC(=O)[C@H](CC(N)=O)NC(=O)[C@@H]4CCCN4C(=O)[C@H](CCCNC(=N)N)NC(=O)[C@H](CSSC[C@H](NC(=O)[C@@H](N)CC(=O)O)C(=O)N[C@@H](CC(C)C)C(=O)NCC(=O)N[C@@H](C)C(=O)N[C@@H](CCSC)C(=O)N[C@@H](CCCNC(=N)N)C(=O)N[C@@H](CCCCN)C(=O)N2)NC(=O)[C@H](CSSC[C@@H](C(=O)N[C@@H](CCCCN)C(=O)N[C@@H](Cc2ccc(O)cc2)C(=O)N[C@H](C(=O)N[C@@H](Cc2ccccc2)C(N)=O)C(C)C)NC(=O)[C@H](Cc2c[nH]c4ccccc24)NC(=O)CNC(=O)[C@H](Cc2c[nH]cn2)NC(=O)[C@H]([C@@H](C)O)NC(=O)[C@H](CCCNC(=N)N)NC(=O)[C@H](CO)NC3=O)NC(=O)[C@H](CCCCN)NC(=O)[C@H](CC(=O)O)NC(=O)[C@H](CC(N)=O)NC(=O)[C@H](CC(=O)O)NC(=O)[C@@H]2CCCN2C1=O [compound 715] (H-DCLGAMRKCIPDNDKCCRPNLVCSRTHGWCKYVF-NH2; disulfide 2-17, 9-23, 16-30) | – | – | – | 1 | > 50 | > 5

— patent US9340590B2 (priority 2011, dated 2016)
